# From US20190336504A1, “TREATMENT AND PREVENTION OF CYTOKINE RELEASE SYNDROME USING A CHIMERIC ANTIGEN RECEPTOR IN COMBINATION WITH A KINASE INHIBITOR” (Novartis AG, priority 2016, published 2019)
# Read-outs that look alike come from different tables or passages of the source.
# Columns and labels:
# B cell neoplasms = assay type: in vivo, mice
# From the text: For FIGS. 3C-3E, all graphs were representative of two independent experiments (5 mice per group). Student's t-test was used to compare two groups. Survival curves were compared using the log-rank test. Asterisks represent p-values (*=<0.05, **=<0.01, ***=<0.001, ****=<0.0001) and “ns” means “not significant” (p>0.05).
# (§1) All graphs in FIGS. 4B-4F are representative of two independent experiments (5 mice per group). Student's t-test was used to compare two groups; in analysis where multiple groups were compared, one-way analysis of variance (ANOVA) was performed with Holm-Sidak correction for multiple comparisons. Survival curves were compared using the log-rank test. Asterisks represent p-values (*=<0.05, **=<0.01, ***=<0.001, ****=<0.0001) and “ns” means “not significant” (p>0.05).
# primary MCL cells [1] = test: Cytokine production of primary MCL cells incubated for 24 hours with ibrutinib; assay type: cell-based; details: FIG. 4F
# Procedure: as §1
# primary MCL cells [2] = assay type: in vivo, NOD-SCID gamma-chain deficient mice (NSG)
# Procedure: This example describes the development of such a model generated by intravenously injecting NOD-SCID gamma-chain deficient mice (NSG) with primary MCL cells collected from a patient with relapsed MCL (FIG. 3A). NOD SCID Gamma-chain deficient mice were injected with 2×10^6 primary MCL cells intravenously. […] Mice were then followed up for clinical signs, T cell engraftment, tumor burden and survival.
# NOD SCID Gamma-chain deficient mice were injected with 2×10^6 primary MCL cells intravenously. […] Mice were then followed up for clinical signs, T cell engraftment, tumor burden and survival. […] See, e.g., Ruella et al. Clin Cancer Res 2016; 10.1158/1078-0432.CCR-15-1527.
# primary AML blasts = assay type: in vivo
# Procedure: For the development of CRS preclinical models, NOD-SCID-γ chain−/− (NSG) transgenic for human interleukin-3, stem cell factor and granulocyte macrophage colony-stimulating factor (NSG-S) were used. These were purchased from the Stem Cell and Xenograft Core of the University of Pennsylvania (originally obtained from Jackson Laboratories). Schemas of the utilized xenograft models are discussed in detail in the relevant figures and the Results section herein. Cells were injected in 200 ul of phosphate-buffered saline at the indicated concentration into the tail veins.
# Ruxolitinib was purchased from Selleckchem, dissolved in DMSO and diluted to the indicated concentrations. […] Blood. […] Blood. […] Blood. 2016.
# See, e.g., Gill S, Tasian S K, Ruella M, et al. Preclinical targeting of human acute myeloid leukemia and myeloablation using chimeric antigen receptor-modified T cells. Blood. 2014; 123:2343-2354. In particular, NSG-S mice were engrafted with primary AML blasts (5×10^6) and bled after 2-4 weeks to confirm engraftment. Mice then were treated with high doses of CART123 1×10^6 by intravenous tail vein single injection and monitored with serial clinical examinations, weight recording and retro-orbital bleedings for leukemia burden assessment and cytokine analysis. […] (CART123 were injected on day 41 post AML injection in the experiment.)
# The experiments in this Example investigated ruxolitinib as a modality to prevent or reduce CRS severity after CART123 in the AML xenograft model described herein. NSGS mice were engrafted with primary AML blasts (5×10^6) and bled after 2-4 weeks to confirm peripheral blood engraftment. NSGS mice bearing primary AML were treated with CART123 (1×10^6) by intravenous tail vein single injection along with ruxolitinib or vehicle control. The mice were randomized to receive different doses of ruxolitinib (30 mg/kg, 60 mg/kg or 90 mg/kg) or vehicle by oral gavage twice a day. Treatment started on the day of CART123 injection and continued for a week (FIG. 2A). Mice were then monitored with serial clinical examinations, weight recording, retro-orbital bleedings for leukemia burden assessment and cytokine analysis and followed for survival.
# AML = details: summary statement
smiles,measurement,setting,value
"C=CC(=O)N1CCC[C@@H](n2nc(-c3ccc(Oc4ccccc4)cc3)c3c(N)ncnc32)C1 [ibrutinib, 1-[(3R)-3-[4-Amino-3-(4-phenoxyphenyl)-1H-pyrazolo[3,4-d]pyrimidin-1-yl]piperidin-1-yl]prop-2-en-1-one]",T cell expansion,"B cell neoplasms; CART19-treated mice, ibrutinib or vehicle treatment, FIG. 4D",augmented
same,CRS after a CD19 CAR therapy,"B cell neoplasms; CD19 CAR therapy for B cell neoplasms, summary statement",improve or prevent CRS
same,serum cytokines involved in CRS (Luminex),"B cell neoplasms; mice treated with CART19+ibrutinib vs CART19, FIG. 4E",significant reduction
same,overall survival,"B cell neoplasms; mice treated with CART19 plus ibrutinib (vs CART19 plus vehicle), FIG. 4B, log-rank test",significantly increased
same,cytokine production,primary MCL cells [1],significant cytokine production in a dose-dependent manner
same,overall survival (OS),primary MCL cells [2]; CART19 + ibrutinib 125 mg/Kg/day in drinking water vs CART19 alone,prolonged overall survival
same,CART19 expansion in the PB,primary MCL cells [2]; CART19 + ibrutinib vs CART19 alone,augmented
same,"cytokines in the peripheral blood (IL-6, IFNg, TNFα, IL-2, GM-CSF)","primary MCL cells [2]; day 4, ibrutinib-treated mice",significantly reduced
"N#CC[C@H](C1CCCC1)n1cc(-c2ncnc3[nH]ccc23)cn1 [ruxolitinib, (3R)-3-cyclopentyl-3-[4-(7H-pyrrolo[2,3-d]pyrimidin-4-yl)pyrazol-1-yl]propanenitrile]",leukemia in peripheral blood of surviving mice,"primary AML blasts; 70 days post AML injection, live human CD45 positive cells",all surviving mice had eradication of leukemia
same,anti-leukemic effect,"primary AML blasts; all groups: CART123 + ruxolitinib 30, 60 or 90 mg/kg or vehicle",equivalent anti-leukemic effect
same,T cell expansion in the peripheral blood,primary AML blasts; ruxolitinib 60 mg/kg + CART123,blunted T cell expansion
same,leukemia burden,primary AML blasts; ruxolitinib 60 mg/kg + CART123,leukemia eradication
same,levels of inflammatory cytokines,primary AML blasts; ruxolitinib 60 mg/kg + CART123,reduced levels of inflammatory cytokines
same,weight loss,primary AML blasts; ruxolitinib 60 mg/kg + CART123,transient weight loss
same,survival,primary AML blasts; ruxolitinib 60 mg/kg + high dose CART123,long-term disease free survival
same,clinical illness (CRS) manifested by weight loss,"primary AML blasts; ruxolitinib 60 mg/kg oral gavage twice a day for a week + CART123, vs CART123 alone or + 30 mg/kg",less severe clinical illness
same,clinical illness (CRS) manifested by weight loss,"primary AML blasts; ruxolitinib 90 mg/kg oral gavage twice a day for a week + CART123, vs CART123 alone or + 30 mg/kg",less severe clinical illness
same,direct anti-tumor activity,primary AML blasts; ruxolitinib with CART123,no direct anti-tumor activity
same,effect on anti-tumor activity of CART123,primary AML blasts; ruxolitinib with CART123,did not impair
same,cytokine release syndrome (CRS) after CART cell therapy,"AML; CART cell therapy for hematological cancers, such as AML",ameliorate cytokine release syndrome (CRS) severity or prevent CRS
same,anti-tumor effect of the CART therapy,AML; combination with JAK-STAT kinase inhibitor,without significantly impairing
